Here are results for 20 molecules from patent US10787462B2, “Heterocyclic compound” (TAKEDA PHARMACEUTICAL COMPANY LIMITED, priority 2015, dated 2020).

In this test the target is T1, human RIPK1 (1-375) (Homo sapiens, UniProt Q13546).
T1 construct: human RIPK1 (1-375) gene; GST; made in house; host or cells: Sf-9 insect cells
T1 sequence (Q13546 1-375): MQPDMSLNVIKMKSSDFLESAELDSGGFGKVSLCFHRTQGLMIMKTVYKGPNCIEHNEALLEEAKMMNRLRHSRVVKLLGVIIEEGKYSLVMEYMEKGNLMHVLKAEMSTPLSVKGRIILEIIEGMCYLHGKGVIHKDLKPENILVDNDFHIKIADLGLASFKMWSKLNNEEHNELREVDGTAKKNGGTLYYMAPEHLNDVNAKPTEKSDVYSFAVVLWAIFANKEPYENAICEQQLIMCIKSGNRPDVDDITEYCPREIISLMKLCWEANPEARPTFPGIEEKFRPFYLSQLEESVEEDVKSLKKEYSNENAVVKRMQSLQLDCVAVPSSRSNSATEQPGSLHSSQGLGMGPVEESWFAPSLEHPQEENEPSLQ
As to the kind of experiment: Human RIPK1 enzyme inhibitory effect (ADP-Glo Kinase Assay). The class given is biochemical. The settings on record: well without enzyme = 100% inhibition; for inhibition at 10 µM: read-out: human RIPK1 enzyme inhibitory effect at 10 μM (% inhibition), 10 μM test compound; for human RIPK1 enzyme inhibitory effect at 10 μM (% inhibition): 10 μM test compound. The method in brief:
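Human RIPK1 (1-375), GST-purified from Sf-9 cells, preincubated 20 min at room temperature with compound in 25 mM HEPES pH 7.5, 10 mM MgCl2, 0.01% Tween-20, 2 mM DTT. Reaction started with 0.6 mM ATP solution (stock), run 120 min at room temperature. ADP measured by ADP-Glo luminescence.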
(In general: ADP-Glo first removes unused ATP, then detects ADP through luciferase.)

As to `CN1C[C@H](N2CCc3cn(Cc4ccccc4)nc3C2=O)C(=O)N(C)c2ccccc21` [Example 151, (3S)-3-(2-benzyl-7-oxo-2,4,5,7-tetrahydro-6H-pyrazolo[3,4-c]pyridin-6-yl)-1,5-dimethyl-1,3,4,5-tetrahydro-2H-1,5-benzodiazepin-2-one], the inhibition at 10 µM is 98%. `CN1C(=O)C(N2CCc3c(nn(Cc4ccccc4F)c3Cl)C2=O)CCc2c1cnn2C` (centres unmarked) [Example 131, 6-(3-chloro-2-(2-fluorobenzyl)-7-oxo-2,4,5,7-tetrahydro-6H-pyrazolo[3,4-c]pyridin-6-yl)-1,4-dimethyl-4,6,7,8-tetrahydropyrazolo[4,3-b]azepin-5(1H)-one]: the “human RIPK1 enzyme inhibitory effect at 10 μM (% inhibition)” value is 100%.

Consider `CN1C(=O)[C@@H](N2CCc3cn(Cc4cccnc4)nc3C2=O)COc2ccccc21` [Example 153, (3S)-5-methyl-3-(7-oxo-2-(pyridin-3-ylmethyl)-2,4,5,7-tetrahydro-6H-pyrazolo[3,4-c]pyridin-6-yl)-2,3-dihydro-1,5-benzoxazepin-4(5H)-one], for which the inhibition at 10 µM was 95%.

For `CN1C(=O)C(N2CCc3c(nn(Cc4c(F)cccc4F)c3Cl)C2=O)CCc2c1cnn2C` (centres unmarked) [Example 130, 6-(3-chloro-2-(2,6-difluorobenzyl)-7-oxo-2,4,5,7-tetrahydro-6H-pyrazolo[3,4-c]pyridin-6-yl)-1,4-dimethyl-4,6,7,8-tetrahydropyrazolo[4,3-b]azepin-5(1H)-one], the inhibition at 10 µM was determined as 100%. On the same count and under the same terms, the result for `CN1C(=O)[C@@H](N2CCc3c(nn(Cc4ccccc4)c3Cl)C2=O)COc2cc(-c3cnn(C)c3)ccc21` [Example 107, (3S)-3-(2-benzyl-3-chloro-7-oxo-2,4,5,7-tetrahydro-6H-pyrazolo[3,4-c]pyridin-6-yl)-5-methyl-8-(1-methyl-1H-pyrazol-4-yl)-2,3-dihydro-1,5-benzoxazepin-4(5H)-one] reads 100%; that for `CN1C(=O)[C@@H](N2CCc3cn(CC4CCCOC4)nc3C2=O)COc2ccccc21` (stereo partly drawn) [Example 170, (3S)-5-methyl-3-(7-oxo-2-(tetrahydro-2H-pyran-3-ylmethyl)-2,4,5,7-tetrahydro-6H-pyrazolo[3,4-c]pyridin-6-yl)-2,3-dihydro-1,5-benzoxazepin-4(5H)-one], 97%; that for `CN1C(=O)[C@@H](N2CCc3cn(Cc4ccccc4)nc3C2=O)COc2ccc(Br)cc21` [Example 40, (3S)-3-(2-benzyl-7-oxo-2,4,5,7-tetrahydro-6H-pyrazolo[3,4-c]pyridin-6-yl)-7-bromo-5-methyl-2,3-dihydro-1,5-benzoxazepin-4(5H)-one], 100%. In the case of `COc1ccc(Cn2cc3c(n2)C(=O)N([C@H]2COc4ccccc4N(C)C2=O)CC3)cc1` [Example 161, (3S)-3-(2-(4-methoxybenzyl)-7-oxo-2,4,5,7-tetrahydro-6H-pyrazolo[3,4-c]pyridin-6-yl)-5-methyl-2,3-dihydro-1,5-benzoxazepin-4(5H)-one], the inhibition at 10 µM is 99%. Consider `CN1C(=O)C(N2CCc3c(nn(Cc4ccccc4)c3Cl)C2=O)CCc2cn(C)nc21` (centres unmarked) [Example 114, 6-(2-benzyl-3-chloro-7-oxo-2,4,5,7-tetrahydro-6H-pyrazolo[3,4-c]pyridin-6-yl)-2,8-dimethyl-2,5,6,8-tetrahydropyrazolo[3,4-b]azepin-7(4H)-one], for which the “human RIPK1 enzyme inhibitory effect at 10 μM (% inhibition)” value is 101%. As to `CN1C(=O)[C@@H](N2CCc3cn(Cc4ccc(C#N)cc4F)nc3C2=O)COc2ccccc21` [Example 162, 3-fluoro-4-((6-((3S)-5-methyl-4-oxo-2,3,4,5-tetrahydro-1,5-benzoxazepin-3-yl)-7-oxo-4,5,6,7-tetrahydro-2H-pyrazolo[3,4-c]pyridin-2-yl)methyl)benzonitrile], the inhibition at 10 µM was 99%. On the same count and under the same terms, the result for `CN1C(=O)[C@@H](N2CCc3c(nn(Cc4ccccc4)c3Cl)C2=O)COc2cc(C3COC3)ccc21` [Example 59, (3S)-3-(2-benzyl-3-chloro-7-oxo-2,4,5,7-tetrahydro-6H-pyrazolo[3,4-c]pyridin-6-yl)-5-methyl-8-(oxetan-3-yl)-2,3-dihydro-1,5-benzoxazepin-4(5H)-one] reads 97%. Still for that read-out and setting: the result for `CNC(=O)c1ccc2c(c1)OC[C@H](N1CCc3c(nn(Cc4ccccc4)c3Cl)C1=O)C(=O)N2C` [Example 44, (3S)-3-(2-benzyl-3-chloro-7-oxo-2,4,5,7-tetrahydro-6H-pyrazolo[3,4-c]pyridin-6-yl)-N,5-dimethyl-4-oxo-2,3,4,5-tetrahydro-1,5-benzoxazepine-8-carboxamide] reads 100%; that for `CN1C(=O)[C@@H](N2CCc3cn(CC4CCOC4)nc3C2=O)COc2ccccc21` (stereo partly drawn) [Example 171, (3S)-5-methyl-3-(7-oxo-2-(tetrahydrofuran-3-ylmethyl)-2,4,5,7-tetrahydro-6H-pyrazolo[3,4-c]pyridin-6-yl)-2,3-dihydro-1,5-benzoxazepin-4(5H)-one], 88%; that for `CN1C(=O)[C@@H](N2CCc3c(nn(Cc4ccccc4)c3OC(F)F)C2=O)COc2cc(C#N)ccc21` [Example 124, (32)-3-(2-benzyl-3-(difluoromethoxy)-7-oxo-2,4,5,7-tetrahydro-6H-pyrazolo[3,4-c]pyridin-6-yl)-5-methyl-4-oxo-2,3,4,5-tetrahydro-1,5-benzoxazepine-8-carbonitrile], 98%. Same read-out and setting: under `CN1C(=O)C(N2CCc3c(nn(Cc4ccccc4)c3Cl)C2=O)CCc2c1cnn2C` (centres unmarked) [Example 126, 6-(2-benzyl-3-chloro-7-oxo-2,4,5,7-tetrahydro-6H-pyrazolo[3,4-c]pyridin-6-yl)-1,4-dimethyl-4,6,7,8-tetrahydropyrazolo[4,3-b]azepin-5(1H)-one] stands 98%; under `O=C1Nc2ccccc2CCC1n1ccc2cn(Cc3ccccc3)nc2c1=O` (centres unmarked) [Example 5, 3-(2-benzyl-7-oxo-2,7-dihydro-6H-pyrazolo[3,4-c]pyridin-6-yl)-1,3,4,5-tetrahydro-2H-1-benzazepin-2-one], 88%. As to `CN1C(=O)[C@@H](N2CCc3cn(Cc4ccccc4)nc3C2=O)COc2ccccc21` [Example 1, (3S)-3-(2-benzyl-7-oxo-2,4,5,7-tetrahydro-6H-pyrazolo[3,4-c]pyridin-6-yl)-5-methyl-2,3-dihydro-1,5-benzoxazepin-4(5H)-one], the inhibition at 10 µM was 100%. Same read-out and setting: the result for `Cc1c2c(nn1Cc1cnccn1)C(=O)N([C@H]1COc3ccccc3N(C)C1=O)CC2` [Example 79, (3S)-5-methyl-3-(3-methyl-7-oxo-2-(pyrazin-2-ylmethyl)-2,4,5,7-tetrahydro-6H-pyrazolo[3,4-c]pyridin-6-yl)-2,3-dihydro-1,5-benzoxazepin-4(5H)-one] reads 100%; that for `Cc1c2c(nn1Cc1ccccc1F)C(=O)N([C@H]1COc3cc(Br)ccc3N(C)C1=O)CC2` [Example 109, (3S)-8-bromo-3-(2-(2-fluorobenzyl)-3-methyl-7-oxo-2,4,5,7-tetrahydro-6H-pyrazolo[3,4-c]pyridin-6-yl)-5-methyl-2,3-dihydro-1,5-benzoxazepin-4(5H)-one], 100%; that for `CN1C(=O)[C@@H](N2CCc3c(nc(Cc4ccccc4)n3C)C2=O)COc2ccccc21` [Example 56, (3S)-3-(2-benzyl-1-methyl-4-oxo-1,4,6,7-tetrahydro-5H-imidazo[4,5-c]pyridin-5-yl)-5-methyl-2,3-dihydro-1,5-benzoxazepin-4(5H)-one], 96%.

For orientation: inhibition means the change of the read-out against control, counted positive when it falls.
